The source of these data is US20230265151A1, “GIP/GLP1 CO-AGONIST COMPOUNDS” (priority 2020, published 2023).

Like-named read-outs stand apart in the source and are kept apart here.

Holding throughout (type): cell-based
For one assay, the target named is T1, hGCGR (Homo sapiens, UniProt P47871).
T1 construct: expressed in transfected cells
Description: Functional cAMP formation (HTRF) in HEK-293 clonal cells expressing hGCGR, 0.1% bovine casein, without or with 1.0% human serum albumin. In short, it runs like this: (§1)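 Cells were stimulated with peptide for 30 min at 37° C, then intracellular cAMP was measured by competitive HTRF (665/620 nm ratio) and converted to nM using a cAMP standard curve. Relative EC50 and Emax came from four-parameter logistic fits of percent maximal response against peptide concentration.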

Another assay concerns the target hGLP-1R (Homo sapiens, UniProt P43220). Description: Functional cAMP formation (HTRF) in HEK-293 clonal cells expressing hGLP-1R, 0.1% bovine casein, without or with 1.0% human serum albumin. Also on record: expressed in transfected cells. The settings on record: for Emax: percent of maximal response to GLP-1(7-36)NH2. An outline of the steps:
as §1

The target of the next assay is T2, hGIPR (Homo sapiens, UniProt P48546).
T2 construct: expressed in transfected cells
T2 sequence (P48546 22-466): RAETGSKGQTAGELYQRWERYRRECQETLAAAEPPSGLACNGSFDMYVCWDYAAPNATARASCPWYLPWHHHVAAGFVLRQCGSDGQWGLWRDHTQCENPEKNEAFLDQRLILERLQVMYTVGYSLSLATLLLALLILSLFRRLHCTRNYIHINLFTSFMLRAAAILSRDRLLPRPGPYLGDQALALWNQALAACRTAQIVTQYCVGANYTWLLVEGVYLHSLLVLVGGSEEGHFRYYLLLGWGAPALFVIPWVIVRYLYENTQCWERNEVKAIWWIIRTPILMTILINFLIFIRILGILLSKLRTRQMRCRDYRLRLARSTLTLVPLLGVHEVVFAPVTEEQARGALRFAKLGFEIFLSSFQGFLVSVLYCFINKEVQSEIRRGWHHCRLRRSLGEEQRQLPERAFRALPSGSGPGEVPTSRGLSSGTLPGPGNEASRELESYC
Description: Functional cAMP formation (HTRF) in HEK-293 clonal cells expressing hGIPR, 0.1% bovine casein, without or with 1.0% human serum albumin. In short, it runs like this: as §1

Where [1] appears, read: 0.1% bovine casein and 1.0% human serum albumin, 37° C., geometric mean, read-out: hGCGR EC50, nM (SEM, n).
Setting [2] is: cAMP, incubated at 37° C., 0.1% bovine casein (no human serum albumin), geometric mean, read-out: hGCGR EC50, nM (SEM, n).
The mark [3] stands for this setting: 0.1% bovine casein and 1.0% human serum albumin, 37° C., geometric mean, read-out: hGLP-1R EC50, nM (SEM, n).
The mark [4] stands for this setting: 0.1% bovine casein and 1.0% human serum albumin, 37° C., geometric mean, read-out: hGIPR EC50, nM (SEM, n).
Where [5] appears, read: HEK293, 0.1% bovine casein and 1.0% human serum albumin, 37° C., percent of maximal response to GIP(1-42)NH2, read-out: hGIPR Emax, % ± SEM.
[6] abbreviates: HEK293, percent of maximal response to GIP(1-42)NH2, 37° C., 0.1% bovine casein, arithmetic mean, read-out: hGIPR Emax, % ± SEM.
[7] abbreviates: cAMP, incubated at 37° C., 0.1% bovine casein (no human serum albumin), geometric mean, read-out: hGIPR EC50, nM (SEM, n).

T1 sequence (P47871 26-477): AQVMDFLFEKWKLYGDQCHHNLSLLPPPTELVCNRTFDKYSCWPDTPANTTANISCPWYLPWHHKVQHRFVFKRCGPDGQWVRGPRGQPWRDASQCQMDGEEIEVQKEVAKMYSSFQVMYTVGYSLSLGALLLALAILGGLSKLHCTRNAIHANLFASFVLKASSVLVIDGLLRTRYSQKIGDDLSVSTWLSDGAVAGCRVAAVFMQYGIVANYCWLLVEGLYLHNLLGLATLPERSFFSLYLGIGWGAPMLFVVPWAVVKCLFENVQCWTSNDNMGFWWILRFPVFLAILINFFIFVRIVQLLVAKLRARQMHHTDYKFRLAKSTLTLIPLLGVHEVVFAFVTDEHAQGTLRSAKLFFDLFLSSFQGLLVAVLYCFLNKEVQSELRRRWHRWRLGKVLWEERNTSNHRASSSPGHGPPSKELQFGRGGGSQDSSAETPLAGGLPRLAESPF
Sequence of hGLP-1R (P43220 24-463): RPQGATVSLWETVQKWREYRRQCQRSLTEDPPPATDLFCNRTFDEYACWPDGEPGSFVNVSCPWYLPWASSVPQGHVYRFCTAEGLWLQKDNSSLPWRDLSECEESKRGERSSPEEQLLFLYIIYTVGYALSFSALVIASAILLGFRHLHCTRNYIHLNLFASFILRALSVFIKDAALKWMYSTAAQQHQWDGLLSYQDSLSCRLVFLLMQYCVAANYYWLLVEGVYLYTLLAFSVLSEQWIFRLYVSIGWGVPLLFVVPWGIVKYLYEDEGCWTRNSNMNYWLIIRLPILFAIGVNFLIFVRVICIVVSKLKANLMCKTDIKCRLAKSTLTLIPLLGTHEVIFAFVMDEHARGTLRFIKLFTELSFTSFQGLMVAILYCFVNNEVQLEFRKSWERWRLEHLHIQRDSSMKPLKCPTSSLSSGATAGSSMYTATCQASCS

For the compound `CC[C@H](C)[C@H](NC(=O)[C@H](CCCN)NC(=O)[C@H](CC(=O)O)NC(=O)[C@H](CC(C)C)NC(=O)[C@](C)(CC(C)C)NC(=O)[C@@H](NC(=O)C(C)(C)NC(=O)[C@H](Cc1ccc(O)cc1)NC(=O)[C@H](CC(=O)O)NC(=O)[C@H](CO)NC(=O)[C@@H](NC(=O)[C@](C)(Cc1ccccc1F)NC(=O)[C@@H](NC(=O)CNC(=O)[C@H](CCC(=O)O)NC(=O)C(C)(C)NC(=O)[C@@H](N)Cc1ccc(O)cc1)[C@@H](C)O)[C@@H](C)O)[C@@H](C)CC)C(=O)N[C@@H](C)C(=O)N[C@@H](CCC(N)=O)C(=O)NC(C)(C)C(=O)N[C@@H](CCCN)C(=O)N[C@@H](Cc1ccccc1)C(=O)N[C@H](C(=O)N[C@@H](CCCCNC(=O)COCCOCCNC(=O)COCCOCCNC(=O)CC[C@H](NC(=O)CCCCCCCCCOc1ccc(C(=O)O)cc1)C(=O)O)C(=O)N[C@@](C)(Cc1ccc(O)cc1)C(=O)N[C@@H](CC(C)C)C(=O)N[C@H](C(=O)N[C@@H](CCCCNC(=O)COCCOCCNC(=O)COCCOCCNC(=O)CC[C@H](NC(=O)CCCCCCCCCOc1ccc(C(=O)O)cc1)C(=O)O)C(=O)NCC(=O)NCC(=O)N1CCC[C@H]1C(=O)N[C@@H](CO)C(=O)N[C@@H](CO)C(=O)NCC(=O)N[C@@H](C)C(=O)N1CCC[C@H]1C(=O)N1CCC[C@H]1C(=O)N1CCC[C@H]1C(=O)N[C@@H](CO)C(N)=O)[C@@H](C)CC)[C@@H](C)CC` [Example 355], the EC50 is more than 9950 nM on hGCGR (hGCGR EC50, nM (SEM, n), cAMP, 37° C., 0.1% bovine casein (no human serum albumin), geometric mean); more than 9950 nM on hGCGR (hGCGR EC50, nM (SEM, n), cAMP, 37° C., 0.1% bovine casein and 1.0% human serum albumin, geometric mean (SEM, n)); 0.574 nM on hGLP-1R (hGLP-1R EC50, nM (SEM, n), cAMP, 37° C., 0.1% bovine casein (no human serum albumin), geometric mean); 11.3 nM at hGLP-1R (hGLP-1R EC50, nM (SEM, n), cAMP, 37° C., 0.1% bovine casein and 1.0% human serum albumin, geometric mean (SEM, n)); 0.0365 nM at hGIPR (hGIPR EC50, nM (SEM, n), cAMP, 37° C., 0.1% bovine casein (no human serum albumin), geometric mean); 1.81 nM at hGIPR (hGIPR EC50, nM (SEM, n), cAMP, 37° C., 0.1% bovine casein and 1.0% human serum albumin, geometric mean (SEM, n)). The Emax at hGLP-1R (HEK293, read-out: hGLP-1R Emax, % ± SEM, cAMP, 37° C., 0.1% bovine casein and 1.0% human serum albumin) came to 109%; at hGLP-1R (HEK293, read-out: hGLP-1R Emax, % ± SEM, cAMP, 37° C., 0.1% bovine casein, arithmetic mean) it was 105%; on hGIPR (HEK293, read-out: hGIPR Emax, % ± SEM, cAMP, 37° C., 0.1% bovine casein and 1.0% human serum albumin, percent of maximal response to GIP(1-42)NH2) it was 86%.

Take `CC[C@H](C)[C@H](NC(=O)[C@H](CC(C)C)NC(=O)[C@](C)(Cc1ccc(O)cc1)NC(=O)[C@@H](CCC(=O)O)NC(=O)[C@@H](NC(=O)[C@H](Cc1ccccc1)NC(=O)[C@H](CCC(=O)O)NC(=O)C(C)(C)NC(=O)[C@H](CCC(N)=O)NC(=O)[C@H](C)NC(=O)[C@H](CCCCNC(=O)COCCOCCNC(=O)CC[C@H](NC(=O)CCCCCCCCCCCCC(=O)O)C(=O)O)NC(=O)[C@H](CCCN)NC(=O)[C@H](CC(=O)O)NC(=O)[C@H](CC(C)C)NC(=O)[C@](C)(CC(C)C)NC(=O)[C@@H](NC(=O)C(C)(C)NC(=O)[C@H](Cc1ccc(O)cc1)NC(=O)[C@H](CC(=O)O)NC(=O)[C@H](CO)NC(=O)[C@@H](NC(=O)[C@](C)(Cc1ccccc1F)NC(=O)[C@@H](NC(=O)CNC(=O)[C@H](CCC(=O)O)NC(=O)C(C)(C)NC(=O)[C@@H](N)Cc1ccc(O)cc1)[C@@H](C)O)[C@@H](C)O)[C@@H](C)CC)[C@@H](C)CC)C(=O)N[C@@H](CCC(=O)O)C(=O)NCC(=O)NCC(=O)N1CCC[C@H]1C(=O)N[C@@H](CO)C(=O)N[C@@H](CO)C(=O)NCC(=O)N[C@@H](C)C(=O)N1CCC[C@H]1C(=O)N1CCC[C@H]1C(=O)N1CCC[C@H]1C(=O)N[C@@H](CO)C(=O)N[C@@H](CCCCNC(=O)COCCOCCNC(=O)CC[C@H](NC(=O)CCCCCCCCCCCCC(=O)O)C(=O)O)C(N)=O` [Example 368]: the EC50 at hGCGR (cAMP, 37° C., 0.1% bovine casein (no human serum albumin), geometric mean, read-out: hGCGR EC50, nM (SEM, n)) is more than 9950 nM; at hGLP-1R (cAMP, 37° C., 0.1% bovine casein (no human serum albumin), geometric mean, read-out: hGLP-1R EC50, nM (SEM, n)), 0.411 nM; at hGIPR (cAMP, 37° C., 0.1% bovine casein (no human serum albumin), geometric mean, read-out: hGIPR EC50, nM (SEM, n)), 0.0271 nM. On hGIPR (HEK293, cAMP, 37° C., 0.1% bovine casein, percent of maximal response to GIP(1-42)NH2, arithmetic mean, read-out: hGIPR Emax, % ± SEM), the Emax was 105%.

For the compound `CC[C@H](C)[C@H](NC(=O)[C@H](CC(C)C)NC(=O)[C@](C)(Cc1ccc(O)cc1)NC(=O)[C@@H](CCC(=O)O)NC(=O)[C@@H](NC(=O)[C@H](Cc1ccccc1)NC(=O)[C@H](CCC(=O)O)NC(=O)C(C)(C)NC(=O)[C@H](CCC(N)=O)NC(=O)[C@H](C)NC(=O)[C@H](CCCCNC(=O)COCCOCCNC(=O)CC[C@H](NC(=O)CCCc1ccc(C(C)(C)C)cc1)C(=O)O)NC(=O)[C@H](CCCN)NC(=O)[C@H](CC(=O)O)NC(=O)[C@H](CC(C)C)NC(=O)[C@](C)(CC(C)C)NC(=O)[C@@H](NC(=O)[C@H](CO)NC(=O)[C@H](Cc1ccncc1)NC(=O)[C@H](CC(=O)O)NC(=O)[C@H](CO)NC(=O)[C@@H](NC(=O)[C@](C)(Cc1ccccc1F)NC(=O)[C@@H](NC(=O)CNC(=O)[C@H](CCC(=O)O)NC(=O)C(C)(C)NC(=O)[C@@H](N)Cc1ccc(O)cc1)[C@@H](C)O)[C@@H](C)O)[C@@H](C)CC)[C@@H](C)CC)C(=O)N[C@@H](CCCCNC(=O)COCCOCCNC(=O)CC[C@H](NC(=O)CCCc1ccc(C(C)(C)C)cc1)C(=O)O)C(=O)NCC(=O)NCC(=O)N1CCC[C@H]1C(=O)N[C@@H](CO)C(=O)N[C@@H](CO)C(=O)NCC(=O)N[C@@H](C)C(=O)N1CCC[C@H]1C(=O)N1CCC[C@H]1C(=O)N1CCC[C@H]1C(=O)N[C@@H](CO)C(N)=O` [Example 208], the EC50 was more than 9950 nM at hGCGR (setting [1]); more than 9950 nM on hGCGR (setting [2]); 1.58 nM at hGLP-1R (setting [3]); 0.126 nM at hGIPR (setting [4]); 0.018 nM on hGIPR (setting [7]). For the same compound, the Emax at hGIPR (setting [5]) is 64.1%; at hGIPR (setting [6]), 94.9%.

Take `CC[C@H](C)[C@H](NC(=O)[C@H](CCCN)NC(=O)[C@H](CC(=O)O)NC(=O)[C@H](CC(C)C)NC(=O)[C@](C)(CC(C)C)NC(=O)[C@@H](NC(=O)[C@H](CO)NC(=O)[C@H](Cc1ccncc1)NC(=O)[C@H](CC(=O)O)NC(=O)[C@H](CO)NC(=O)[C@@H](NC(=O)[C@](C)(Cc1ccccc1F)NC(=O)[C@@H](NC(=O)CNC(=O)[C@H](CCC(=O)O)NC(=O)C(C)(C)NC(=O)[C@@H](N)Cc1ccc(O)cc1)[C@@H](C)O)[C@@H](C)O)[C@@H](C)CC)C(=O)N[C@@H](C)C(=O)N[C@@H](CCC(N)=O)C(=O)NC(C)(C)C(=O)N[C@@H](CCCCNC(=O)COCCOCCNC(=O)COCCOCCNC(=O)CCCCCCCCCCCCC(=O)O)C(=O)N[C@@H](Cc1ccccc1)C(=O)N[C@H](C(=O)N[C@H](CCC(=O)O)C(=O)N[C@@](C)(Cc1ccc(O)cc1)C(=O)N[C@@H](CC(C)C)C(=O)N[C@H](C(=O)N[C@@H](CCC(=O)O)C(=O)NCC(=O)NCC(=O)N[C@@H](CCCCNC(=O)COCCOCCNC(=O)COCCOCCNC(=O)CCCCCCCCCCCCC(=O)O)C(=O)N[C@@H](CO)C(=O)N[C@@H](CO)C(=O)NCC(=O)N[C@@H](C)C(=O)N1CCC[C@H]1C(=O)N1CCC[C@H]1C(=O)N1CCC[C@H]1C(=O)N[C@@H](CO)C(N)=O)[C@@H](C)CC)[C@@H](C)CC` [Example 195]: the EC50 was more than 9950 nM at hGCGR (setting [1]); more than 9950 nM at hGCGR (setting [2]); 14 nM on hGLP-1R (setting [3]); 0.343 nM on hGLP-1R (cAMP, incubated at 37° C., 0.1% bovine casein (no human serum albumin), geometric mean, read-out: hGLP-1R EC50, nM (SEM, n)); 0.771 nM on hGIPR (setting [4]); 0.0219 nM at hGIPR (setting [7]). Further, the maximal response (Emax) amounted to 87 ± 12.2% at hGIPR (setting [5]) and 88.5 ± 4.32% on hGIPR (setting [6]).
